# Data reported in PubChem BioAssay AID1259407 (Chemical Carcinogenesis Research Information System (CCRIS), 2018).
# The source made the active and inactive calls. How the calls were made is not given here.
# System: CCRIS mutagenicity, Ames/micronucleus/aberration tests
# Assay: CCRIS mutagenicity studies
# [1] = Test System: AMES SALMONELLA TYPHIMURIUM, Strain/Indicator: TA97, Metabolic Activation: NONE, Method: PREINCUBATION
# [2] = Test System: AMES SALMONELLA TYPHIMURIUM, Strain/Indicator: TA100, Metabolic Activation: NONE, Method: PREINCUBATION
# [3] = Test System: CHINESE HAMSTER V-79, Strain/Indicator: V-79 (HPRT)/6-THIOGUANINE, Metabolic Activation: NONE, Method: STANDARD PLATE
# [4] = Test System: AMES SALMONELLA TYPHIMURIUM, Strain/Indicator: TA98, Metabolic Activation: NONE, Method: STANDARD PLATE
# [5] = Test System: AMES SALMONELLA TYPHIMURIUM, Strain/Indicator: TA98, Metabolic Activation: RAT, LIVER, S-9, AROCLOR 1254, Method: STANDARD PLATE
# [6] = Test System: AMES SALMONELLA TYPHIMURIUM, Strain/Indicator: TA100, Metabolic Activation: NONE, Method: STANDARD PLATE
# [7] = Test System: AMES SALMONELLA TYPHIMURIUM, Strain/Indicator: TA100, Metabolic Activation: RAT, LIVER, S-9, AROCLOR 1254, Method: STANDARD PLATE
# [8] = Test System: AMES SALMONELLA TYPHIMURIUM, Strain/Indicator: TA98, Metabolic Activation: NONE, Method: PREINCUBATION
compound,measurement,setting,value
Cc1cn([C@H]2C[C@H](O)[C@@H](CO)O2)c(=O)[nH]c1=O,mutagenic call,[1],inactive; negative
same,mutagenic call,"Test System: AMES SALMONELLA TYPHIMURIUM, Strain/Indicator: TA97, Metabolic Activation: RAT, LIVER, S-9, AROCLOR 1254, Method: PREINCUBATION",inactive; negative
same,mutagenic call,[2],inactive; negative
same,mutagenic call,"Test System: AMES SALMONELLA TYPHIMURIUM, Strain/Indicator: TA100, Metabolic Activation: RAT, LIVER, S-9, AROCLOR 1254, Method: PREINCUBATION",inactive; negative
same,mutagenic call,[3],inactive; negative
same,mutagenic call,"Test System: CHINESE HAMSTER V-79, Strain/Indicator: V-79/6-THIOGUANINE, Metabolic Activation: NONE, Method: STANDARD PLATE",active; positive
same,mutagenic call,"Test System: CHINESE HAMSTER V-79, Strain/Indicator: V-79/8-AZAGUANINE, Metabolic Activation: NONE",inactive; negative
Nc1cccc([N+](=O)[O-])c1O,mutagenic call,[4],inactive; negative
same,mutagenic call,[5],inactive; negative
same,mutagenic call,[6],inactive; negative
same,mutagenic call,[7],inactive; negative
same,mutagenic call,"Test System: AMES SALMONELLA TYPHIMURIUM, Strain/Indicator: TA1535, Metabolic Activation: NONE, Method: STANDARD PLATE",inactive; negative
same,mutagenic call,"Test System: AMES SALMONELLA TYPHIMURIUM, Strain/Indicator: TA1535, Metabolic Activation: RAT, LIVER, S-9, AROCLOR 1254, Method: STANDARD PLATE",inactive; negative
same,mutagenic call,"Test System: AMES SALMONELLA TYPHIMURIUM, Strain/Indicator: TA1537, Metabolic Activation: NONE, Method: STANDARD PLATE",inactive; negative
same,mutagenic call,"Test System: AMES SALMONELLA TYPHIMURIUM, Strain/Indicator: TA1537, Metabolic Activation: RAT, LIVER, S-9, AROCLOR 1254, Method: STANDARD PLATE",inactive; negative
same,mutagenic call,"Test System: AMES SALMONELLA TYPHIMURIUM, Strain/Indicator: TA1538, Metabolic Activation: NONE, Method: STANDARD PLATE",inactive; negative
same,mutagenic call,"Test System: AMES SALMONELLA TYPHIMURIUM, Strain/Indicator: TA1538, Metabolic Activation: RAT, LIVER, S-9, AROCLOR 1254, Method: STANDARD PLATE",inactive; negative
CCCCCc1ccco1,mutagenic call,[3],inactive; negative
same,mutagenic call,"Test System: CHINESE HAMSTER V-79, Strain/Indicator: V-79 (HPRT)/6-THIOGUANINE, Metabolic Activation: RAT LIVER S-9, Method: STANDARD PLATE",inactive; negative
C/C(C=O)=C(/Cl)C(=O)O,mutagenic call,[8],active; positive
same,mutagenic call,[2],active; positive
same,mutagenic call,"Test System: AMES SALMONELLA TYPHIMURIUM, Strain/Indicator: TA104, Metabolic Activation: NONE, Method: PREINCUBATION",active; positive
CC(C)OC(=O)/C(Cl)=C(/Cl)C=O,mutagenic call,[6],active; positive
COc1ccc(C(c2ccc(OC)cc2)C(Cl)(Cl)Cl)cc1,mutagenic call,"Test System: CHINESE HAMSTER OVARY, Strain/Indicator: CHO-K1-BH4 (HGPRT)/6-THIOGUANINE, Metabolic Activation: NONE, Method: SUSPENSION/PLATE",inactive; negative
same,mutagenic call,"Test System: CHINESE HAMSTER OVARY, Strain/Indicator: CHO-K1-BH4 (HGPRT)/6-THIOGUANINE, Metabolic Activation: S-9, Method: SUSPENSION/PLATE",inactive; negative
same,mutagenic call,"Test System: E. COLI, Strain/Indicator: WP2 UVRA, Metabolic Activation: HAMSTER, LIVER, S-9, AROCLOR 1254, Method: STANDARD PLATE",inactive; negative
same,mutagenic call,"Test System: E. COLI, Strain/Indicator: WP2 UVRA, Metabolic Activation: HAMSTER, LIVER, S-9, Method: STANDARD PLATE",inactive; negative
same,mutagenic call,"Test System: E. COLI, Strain/Indicator: WP2 UVRA, Metabolic Activation: MOUSE, LIVER, S-9, AROCLOR 1254, Method: STANDARD PLATE",inactive; negative
same,mutagenic call,"Test System: E. COLI, Strain/Indicator: WP2 UVRA, Metabolic Activation: MOUSE, LIVER, S-9, Method: STANDARD PLATE",inactive; negative
same,mutagenic call,"Test System: E. COLI, Strain/Indicator: WP2 UVRA, Metabolic Activation: NONE, Method: STANDARD PLATE",inactive; negative
same,mutagenic call,"Test System: E. COLI, Strain/Indicator: WP2 UVRA, Metabolic Activation: RAT, LIVER, S-9, AROCLOR 1254, Method: STANDARD PLATE",inactive; negative
same,mutagenic call,"Test System: E. COLI, Strain/Indicator: WP2 UVRA, Metabolic Activation: RAT, LIVER, S-9, Method: STANDARD PLATE",inactive; negative
same,mutagenic call,"Test System: MOUSE LYMPHOMA, Strain/Indicator: L5178Y (TK+/TK-), Metabolic Activation: NONE, Method: SUSPENSION/PLATE",inactive; negative
same,mutagenic call,"Test System: MOUSE LYMPHOMA, Strain/Indicator: L5178Y (TK+/TK-), Metabolic Activation: RAT, LIVER, S-9, AROCLOR 1254, Method: SUSPENSION/PLATE",active; positive
same,mutagenic call,"Test System: MOUSE LYMPHOMA, Strain/Indicator: L5178Y (TK+/TK-), Metabolic Activation: RAT, LIVER, S-9, Method: SUSPENSION/PLATE",active; positive
same,mutagenic call,"Test System: MOUSE LYMPHOMA, Strain/Indicator: L5178Y (TK+/TK-), Metabolic Activation: S-9, Method: SUSPENSION/PLATE",active; positive
C=CC(=O)OCCBr,mutagenic call,"Test System: AMES SALMONELLA TYPHIMURIUM, Strain/Indicator: TA97, Metabolic Activation: HAMSTER, LIVER, S-9, AROCLOR 1254 (10%), Method: PREINCUBATION",inactive; negative
same,mutagenic call,[1],inactive; negative
same,mutagenic call,"Test System: AMES SALMONELLA TYPHIMURIUM, Strain/Indicator: TA97, Metabolic Activation: RAT, LIVER, S-9, AROCLOR 1254 (10%), Method: PREINCUBATION",inactive; negative
same,mutagenic call,"Test System: AMES SALMONELLA TYPHIMURIUM, Strain/Indicator: TA98, Metabolic Activation: HAMSTER, LIVER, S-9, AROCLOR 1254 (10%), Method: PREINCUBATION",inactive; negative
same,mutagenic call,[8],inactive; negative
same,mutagenic call,"Test System: AMES SALMONELLA TYPHIMURIUM, Strain/Indicator: TA98, Metabolic Activation: RAT, LIVER, S-9, AROCLOR 1254 (10%), Method: PREINCUBATION",inactive; negative
same,mutagenic call,"Test System: AMES SALMONELLA TYPHIMURIUM, Strain/Indicator: TA100, Metabolic Activation: HAMSTER, LIVER, S-9, AROCLOR 1254 (10%), Method: PREINCUBATION",active; positive
same,mutagenic call,[2],inactive; negative
same,mutagenic call,"Test System: AMES SALMONELLA TYPHIMURIUM, Strain/Indicator: TA100, Metabolic Activation: RAT, LIVER, S-9, AROCLOR 1254 (10%), Method: PREINCUBATION",active; positive
same,mutagenic call,"Test System: AMES SALMONELLA TYPHIMURIUM, Strain/Indicator: TA1535, Metabolic Activation: HAMSTER, LIVER, S-9, AROCLOR 1254 (10%), Method: PREINCUBATION",active; positive
same,mutagenic call,"Test System: AMES SALMONELLA TYPHIMURIUM, Strain/Indicator: TA1535, Metabolic Activation: NONE, Method: PREINCUBATION",active; positive
same,mutagenic call,"Test System: AMES SALMONELLA TYPHIMURIUM, Strain/Indicator: TA1535, Metabolic Activation: RAT, LIVER, S-9, AROCLOR 1254 (10%), Method: PREINCUBATION",active; positive
Cc1cc2c(c3ccc4c(O)c(O)ccc4c13)CCC2=O,mutagenic call,"Test System: AMES SALMONELLA TYPHIMURIUM, Strain/Indicator: TA100, Metabolic Activation: RAT, LIVER, MICROSOMES, 15,16-DIHYDRO-11-METHYL-17(H)-CYCLOPENTA[A] PHENANTHREN-17-ONE, Method: STANDARD PLATE",inactive; negative
same,mutagenic call,"Test System: AMES SALMONELLA TYPHIMURIUM, Strain/Indicator: TA100, Metabolic Activation: RAT, LIVER, MICROSOMES, BENZO[A]PYRENE, Method: STANDARD PLATE",active; positive
same,mutagenic call,"Test System: AMES SALMONELLA TYPHIMURIUM, Strain/Indicator: TA100, Metabolic Activation: RAT, LIVER, MICROSOMES, CLOFIBRATE, Method: STANDARD PLATE",inactive; negative
same,mutagenic call,"Test System: AMES SALMONELLA TYPHIMURIUM, Strain/Indicator: TA100, Metabolic Activation: RAT, LIVER, MICROSOMES, DEXAMETHASONE, Method: STANDARD PLATE",inactive; negative
same,mutagenic call,"Test System: AMES SALMONELLA TYPHIMURIUM, Strain/Indicator: TA100, Metabolic Activation: RAT, LIVER, MICROSOMES, ISONIAZID, Method: STANDARD PLATE",inactive; negative
same,mutagenic call,"Test System: AMES SALMONELLA TYPHIMURIUM, Strain/Indicator: TA100, Metabolic Activation: RAT, LIVER, MICROSOMES, PHENOBARBITONE, Method: STANDARD PLATE",inactive; negative
same,mutagenic call,"Test System: AMES SALMONELLA TYPHIMURIUM, Strain/Indicator: TA100, Metabolic Activation: RAT, LIVER, MICROSOMES, Method: STANDARD PLATE",inactive; negative
C1=Cc2cc3ccccc3c3cccc1c23,mutagenic call,[4],inactive; negative
same,mutagenic call,[5],active; positive
same,mutagenic call,[6],inactive; negative
same,mutagenic call,[7],active; positive
